The record followed here is PMC6105827, “Antitrypanosomal 8-Hydroxy-Naphthyridines Are Chelators of Divalent Transition Metals” (Antimicrobial Agents and Chemotherapy, 2018).

Where only a bound is given, the exact number is not on record here.

Data set [1] has as its system Tb927.11.15050 knockdown bloodstream trypanosomes. In words: Drug sensitivity of Tb927.11.15050 RNAi knockdown trypanosomes. Conditions: induced vs uninduced RNAi knockdown. Type of data set: cell-based, Trypanosoma brucei. The source says:
Stem-loop RNAi constructs were assembled as described previously ([54], [62]). PCR primers were designed by using RNAit software ([63]). For HL2 (Tb927.11.15050), primers HL2FW and HL2RV were used to generate a 533-bp gene fragment, and for HL3 (Tb927.11.1910), primers HL3FW and HL3RV were used to generate a 513-bp gene fragment. The accuracy of all assembled constructs was verified by sequencing. Assembled constructs were linearized by using AscI prior to transfection into bloodstream T. brucei 2T1 parasites ([62]). In addition to phleomycin (1 μg ml^−1), trypanosomes maintaining successfully integrated vectors were selected using hygromycin (2.5 μg ml^−1) and confirmed to be puromycin (2 μg ml^−1) resistant. To generate C-terminal 12×Myc tagging vectors for Tb927.11.15050 (Myc1) and Tb927.11.1910 (Myc2), primers Myc1FW and Myc1RV and primers Myc2FW and Myc2RV were used to generate 924-bp and 1,095-bp fragments, respectively. Fragments were inserted into the pNATx^12xMyc construct ([54]) via HindIII and XbaI restriction sites. The accuracy of the assembled constructs was verified by sequencing, and the constructs were linearized with the restriction endonuclease MfeI prior to transfection into the above-described HL2 and HL3 trypanosomes. Trypanosomes maintaining successfully integrated vectors were selected with blasticidin (1 μg ml^−1).

In data set [2] the test system is L. donovani promastigotes. In words: Measurement of 8-HNT compound uptake by UPLC-MS/MS. The data set is classed as cell-based, Leishmania donovani. The note with it: 5 μM, 30 min. As for the experimental part: Triplicate samples of the culture (2 × 10^7 cells; 1 ml) were harvested by centrifugation at 16,000 × g for 5 min. The supernatant (200 μl) was collected from each centrifuged sample, transferred to a fresh Eppendorf tube, and terminated by the addition of 400 μl acetonitrile (supernatant fraction). The remaining supernatant was discarded, and acetonitrile (60 μl) was added to each pellet fraction. Finally, 400 μl acetonitrile was added to 200 μl of culture (equivalent of 4 × 10^6 cells) (total fraction). All fractions were then centrifuged at 16,000 × g for 10 min and diluted as required with MilliQ water. All samples were analyzed in triplicate on a Waters Acquity UPLC instrument coupled to a Waters micro TQs mass spectrometer. Chromatographic separation was achieved by using a Waters BEH (bridged ethylene hybrid) C18 column (1.7-μm particle size, 2.1 by 50 mm), with a flow rate of 0.6 ml min^−1, an injection volume of 0.2 μl, and the following 2-min gradient: 95% mobile phase A initially, with holding for 0.3 min before decreasing to 5% mobile phase A over the next minute and holding for a further 0.49 min before returning to 95% mobile phase A. Mobile phase A was water plus 0.1% formic acid, and mobile phase B was methanol plus 0.1% formic acid. […]

A further data set has as its system THP-1 cells. In words: THP-1 cell sensitivity. Conditions: Homo sapiens. The data set is classed as cell-based. As for the experimental part: L. donovani intramacrophage ([7]), HepG2 ([55]), T. brucei ([56]), and L. donovani promastigote ([57]) compound sensitivity assays were carried out as described previously. Human HepG2 and THP-1 cells used in these assays were provided by the ATCC. Data were processed by using GRAFIT (version 5.0.4; Erithacus Software) and fitted to a 2-parameter equation to obtain the effective concentration inhibiting growth by 50% (EC50). Data are presented as the means of results from at least two independent experiments.

On to `Cc1nnc(-c2nc(NCc3ccc(Cl)cc3)c3cccnc3c2O)[nH]1` [Compound 1], for which the “Increase in EC50 on knockdown of Tb927.11.15050” value in data set [1] is on record as over 3 fold. The figures for the “Accumulation within cells relative to supernatant (equivalent Kp values)” value in data set [2] (4°C) and in data set [2] (37°C) were 29 ± 13 times and 296 ± 69 times, respectively. Besides, the EC50 (usually the concentration needed to bring the measured effect to its halfway point) in the data set on THP-1 cells was over 50 µM.
